Results from ChEMBL document CHEMBL3600336, “Design and synthesis of silicon-containing fatty acid amide derivatives as novel peroxisome proliferator-activated receptor (PPAR) agonists” (Bioorg Med Chem Lett, 2015).
Activity calls are given as the source filed them. The rule behind the calls is not given here.

Tests used:
Assay type in all cases: cell-based
[1] = biological target: T1, Peroxisome proliferator-activated receptor gamma (Homo sapiens) (UniProt P37231); test: Agonist activity at Gal4-tagged human PPARgamma expressed in HEK293 cells at 3 to 30 uM incubated for 16 to 20 hrs by luciferase and beta-galactosidase activity based reporter gene assay
T1 sequence (whole entry): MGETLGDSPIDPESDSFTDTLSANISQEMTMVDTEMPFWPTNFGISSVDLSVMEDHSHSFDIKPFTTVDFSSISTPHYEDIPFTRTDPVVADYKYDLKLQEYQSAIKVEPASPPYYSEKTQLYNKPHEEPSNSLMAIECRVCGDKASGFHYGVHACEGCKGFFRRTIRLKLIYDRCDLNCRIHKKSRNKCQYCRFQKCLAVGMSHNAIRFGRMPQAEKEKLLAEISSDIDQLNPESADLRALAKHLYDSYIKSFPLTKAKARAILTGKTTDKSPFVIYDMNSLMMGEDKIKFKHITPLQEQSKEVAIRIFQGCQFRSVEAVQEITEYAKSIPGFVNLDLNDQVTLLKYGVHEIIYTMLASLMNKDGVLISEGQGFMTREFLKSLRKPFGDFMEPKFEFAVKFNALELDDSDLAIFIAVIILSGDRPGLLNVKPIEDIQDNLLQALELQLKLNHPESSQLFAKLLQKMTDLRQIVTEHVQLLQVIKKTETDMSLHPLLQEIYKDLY

[2] = biological target: T2, Peroxisome proliferator-activated receptor delta (Homo sapiens) (UniProt Q03181); test: Agonist activity at Gal4-tagged human PPARdelta expressed in HEK293 cells at 3 to 30 uM incubated for 16 to 20 hrs by luciferase and beta-galactosidase activity based reporter gene assay
T2 sequence (whole entry): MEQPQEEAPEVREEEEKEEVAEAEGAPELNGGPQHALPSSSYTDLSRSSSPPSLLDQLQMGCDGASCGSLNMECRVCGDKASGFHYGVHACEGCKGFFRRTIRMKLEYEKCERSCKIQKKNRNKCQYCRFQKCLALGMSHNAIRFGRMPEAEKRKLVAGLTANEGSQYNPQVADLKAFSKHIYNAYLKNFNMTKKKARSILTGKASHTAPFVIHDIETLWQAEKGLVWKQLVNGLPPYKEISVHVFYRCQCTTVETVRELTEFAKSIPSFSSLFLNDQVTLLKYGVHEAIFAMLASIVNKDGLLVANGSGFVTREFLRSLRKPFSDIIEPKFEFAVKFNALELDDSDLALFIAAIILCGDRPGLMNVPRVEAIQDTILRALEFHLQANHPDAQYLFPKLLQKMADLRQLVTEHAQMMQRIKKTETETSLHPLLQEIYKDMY

[3] = biological target: T3, Peroxisome proliferator-activated receptor alpha (Homo sapiens) (UniProt Q07869); test: Agonist activity at Gal4-tagged human PPARalpha expressed in HEK293 cells at 3 to 30 uM incubated for 16 to 20 hrs by luciferase and beta-galactosidase activity based reporter gene assay
T3 sequence (whole entry): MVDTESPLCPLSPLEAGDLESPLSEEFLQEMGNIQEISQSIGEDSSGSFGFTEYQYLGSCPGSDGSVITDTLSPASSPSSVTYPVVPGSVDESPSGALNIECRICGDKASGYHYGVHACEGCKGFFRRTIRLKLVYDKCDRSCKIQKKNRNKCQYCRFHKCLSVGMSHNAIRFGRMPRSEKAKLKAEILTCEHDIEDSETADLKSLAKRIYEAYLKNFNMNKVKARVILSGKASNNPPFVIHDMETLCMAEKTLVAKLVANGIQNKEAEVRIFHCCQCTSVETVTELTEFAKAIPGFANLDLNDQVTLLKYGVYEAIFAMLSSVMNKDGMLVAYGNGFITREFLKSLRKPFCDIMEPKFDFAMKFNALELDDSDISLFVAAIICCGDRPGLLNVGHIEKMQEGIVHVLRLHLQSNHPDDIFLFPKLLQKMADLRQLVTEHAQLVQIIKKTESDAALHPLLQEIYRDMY

HEK293 = test: Toxicity against HEK293 cells assessed as reduction in cell viability at 30 uM; conditions: human, hek293, 30 µM

Compound	Activity [1]	Activity [2]	Activity [3]	Activity (HEK293)
CCCCCCCC[Si](CCC)(CCC)CCCCCCCC(=O)NCCO	inactive	Active	Active	–
CCCCCCC[Si](CC)(CC)CCCCCCCC(=O)NCCO	inactive	Active	inactive	Toxic
CCCCCCCC[Si](CCCC)(CCCC)CCCCCCCC(=O)NCCO	inactive	inactive	inactive	–
CCCCCCCC/C=C\CCCCCCCC(=O)NCCO	–	–	Active	–
CCCCCCCCCCCCCCCCCC(=O)NCCO	inactive	–	inactive	–
CCCCCCCC[Si](CC)(CC)CCCCCCCC(=O)NCCO	inactive	Active	Active	–
CCCCCCCC[Si](C)(C)CCCCCCCC(=O)NCCO	inactive	Active	Active	–
CCCCCCCC[Si](CC)(CC)CCCCCCC(=O)NCCO	inactive	inactive	inactive	–
